Measurements as given in patent US11058690B2, “Use of cytochrome bc1 complex inhibitor in preparing pharmaceutical composition” (BEIJING WEILANZHIYUAN MEDICAL TECHNOLOGY CO., LTD., priority 2017, dated 2021).

Key:
Kunming female mice [1] = experiment: oxytocin-induced dysmenorrhea model in mice (diethylstilbestrol sensitization); type: in vivo, mouse; conditions: for Writhe starting time / Number of writhing times: Table 9; for Number of writhing times: within 30 min
Experimental: (§1) A mouse dysmenorrhea model was established with reference to Yang L., Cao Z., Yu B. & Chai C. An in vivo mouse model of primary dysmenorrhea. Exp Anim. 2015, August 64, 295-303. Adult healthy Kunming female mice were randomly grouped, 10 mice in each group. Experimental mice were intragastrically given diethylstilbestrol 0.2 mg daily for 12 days. Different kinds and dosages of the inhibitors of the cytochrome bc1 complex were given intraperitoneally or intragastrically 30 min after the last administration. Indometacin (50 mg/kg) was injected intraperitoneally as positive control, PGF2α (1.3 mg/kg) or oxytocin (20 U/kg) was injected intraperitoneally 1 h later, and the writhe starting time (reaction latency) and the number of writhing times within 30 min were observed and recorded.

Kunming male mice = experiment: acetic acid writhing test on mice; type: in vivo, mouse; conditions: for Number of writhing times: within 30 min
SD rats = experiment: carrageenan-induced rat paw swelling test; type: in vivo; conditions: 4 mg/Kg positive control
Experimental: Eighteen healthy adult male mice were randomly divided into 3 groups. FAPM (100 mg/kg) was administered intraperitoneally once a day for 3 consecutive days. The control group was injected with the same amount of solvent, and the positive drug dexamethasone (4 mg/kg) was administered intragastrically once a day for 3 consecutive days. Thirty minutes after the last administration, 0.1 mL of 1% carrageenan was injected subcutaneously into the right hind paw of each rat, and the plantar thickness was measured before injection and 1, 2 and 3 hours after injection. Three hours later, the rats were sacrificed by dislocation. The feet were cut off from the knee joints and weighed on a precision balance. The swelling degree of the paw (right foot weight-left foot weight) was calculated.

Kunming female mice [2] = experiment: PGF2α-induced dysmenorrhea model in mice (diethylstilbestrol sensitization); type: in vivo, mouse; conditions: for Number of writhing times: within 30 min
Experimental: as §1

mice = experiment: xylene-induced mouse ear swelling test; type: in vivo; conditions: 10 mg/Kg
Experimental: Fifty healthy adult male mice were randomly divided into 5 groups. […] […] One hour after administration, 20 μL of xylene was evenly applied to both sides of the right ear of mouse, and xylene was not applied to the left ear as self control. One hour later, the two ears were cut off, and two ear pieces were removed from the same parts of the two ears with a 6 mm hole punch. The two ear pieces were weighed on a precision balance, and the swelling degree (right ear piece weight-left ear piece weight) and swelling inhibition rate (right ear piece weight-left ear piece weight)/left ear piece weight×100%) were calculated.

[3] = system: Mouse mononuclear macrophage RAW 264.7; experiment: nitric oxide production by LPS-stimulated macrophages (Griess assay); type: cell-based; conditions: LPS 1 μg/mL, 24 h
[4] = system: rat uterine smooth muscle; experiment: contraction of isolated rat uterine smooth muscle strips induced by PGF2α; type: cell-based; conditions: PGF2α (450 nM); area under the contraction curve 10 minutes after drug; read-out: IC50, inhibition of uterine smooth muscle contraction
Experimental: Female healthy Wistar rats weighing 230-270 g were used in the experiment. At 2 days before the experiment, Diethylstilbestrol suspension was injected intraperitoneally once at 0.1 mg/kg, resulting in artificial estrus. The rats were sacrificed by cervical dislocation, and the uterus was removed by laparotomy and immediately placed in a glass plate containing Tyrode's solution. Connective and adipose tissues attached to the uterine wall were carefully peeled off, the uterus was cut open along the mesangial line and laid flat on the bottom of the glass plate, then one side of the uterus was divided into left and right uterine muscle strips by using a surgical blade along the uterine contraction band running along smooth muscle, the two ends of the uterine muscle strip on one side were ligated with wires respectively, and then transferred into a nutrient tube which was aerated with oxygen and filled with 5 ml of Tyrode's solution and preheated to 37.2±0.5° C., with a lower end fixed and an upper end connected with a tension sensor. The materials stood for 20-30 minutes, liquid was changed 2-3 times, then the uterus was given a load of 1 g and kept for 30-60 minutes until the uterus had regular contraction waves, 40 mM KCL solution was provided for 10 minutes, and the function of the uterine muscle strips was evaluated. Then the muscle strips were relaxed and washed 2-3 times with Tyrode's solution, then let stand for 30 minutes; after standing, the uterine muscle strips were given a load of 1 g and kept for 30-60 minutes, and the administration and the observation were carried out after the uterine muscle strips contracted stably (i.e. regular contraction waveforms appear in a microcomputer display screen), the changes of relevant data such as contraction tension, amplitude and area under the contraction curve of the uterine smooth muscle strips were recorded, and the drug given was evaluated. During the experiment, the working temperature of the Tyrode's solution was kept at 37.2±0.5° C., and oxygen was continuously aerated into the nutrient tube with 1-2 bubbles per second. A cumulative dosing method was adopted, and 5 μl was administered each time, from low concentration to high concentration. A final drug concentration refers to the concentration of the drug dissolved in 5 ml Tyrode's solution in a […] tube.
Fluacrypyrim (FAPM), the first strobilurin acaricide developed by BASF SE and Nippon Soda Co., Ltd., is a Qo site inhibitor of the mitochondrial cytochrome bc1 complex. […] The area under the smooth muscle contraction curve was calculated before drug intervention and 10 minutes after different doses of drug intervention respectively. A drug dose-effect curve was plotted by taking the area under the smooth muscle contraction curve caused by PGF2α as 100%, to calculate the median effective dose (IC50 value) of the drug for inhibiting uterine smooth muscle contraction.

[5] = Table 5, positive control 50 mg/Kg intraperitoneal
[6] = Table 8, positive control 50 mg/Kg intraperitoneal
[7] = 50 mg/Kg versus indomethacin 50 mg/Kg
[8] = Table 5, 100 mg/Kg intragastric
[9] = Table 5, 200 mg/Kg intragastric
[10] = Table 5, 400 mg/Kg intragastric
[11] = Table 8, 100 mg/Kg intragastric
[12] = Table 8, 200 mg/Kg intragastric

## COc1ccc2c(c1)c(CC(=O)O)c(C)n2C(=O)c1ccc(Cl)cc1 [Indomethacin, reference compound]
Kunming female mice [1]; positive control 50 mg/Kg intraperitoneal
  Writhe starting time: 3.5 ± 1.0
Kunming female mice [1]; positive control 50 mg/Kg intraperitoneal, oxytocin (20 U/kg)
  Number of writhing times: 14.7 ± 1.4
Kunming male mice; Table 3, 50 mg/Kg intraperitoneal
  Writhe starting time: 4.6 ± 0.8 min
Kunming male mice; Table 3, 50 mg/Kg intraperitoneal, 1 hour before acetic acid
  Number of writhing times: 15.8 ± 3.9
Kunming male mice; [5]
  Writhe starting time: 3.4 ± 1.0 min
  Number of writhing times: 24.8 ± 4.8
SD rats; 1 h after carrageenan
  Paw swelling thickness 1 h: 5.52 ± 0.39 mm
SD rats; 2 h after carrageenan
  Paw swelling thickness 2 h: 5.65 ± 0.39 mm
SD rats; 3 h after carrageenan
  Paw swelling thickness 3 h: 6.11 ± 0.15 mm
SD rats; 3 hours after carrageenan
  Paw swelling (right foot weight-left foot weight): 0.518 ± 0.05 g
Kunming female mice [2]; Table 7, 50 mg/Kg intraperitoneal
  Writhe starting time: 1.89 ± 0.6 min
Kunming female mice [2]; Table 7, 50 mg/Kg intraperitoneal, 1 h before PGF2α (1.3 mg/kg)
  Number of writhing times: 15.0 ± 2.1
Kunming female mice [2]; [6]
  Writhe starting time: 2.1 ± 1.2 min
  Number of writhing times: 16.8 ± 2.5
mice
  ear swelling degree versus control group: no statistical difference
mice; positive control intraperitoneal, 1 hour after xylene
  Ear swelling: 12 ± 3.74 mg

## CO/C=C(/C(=O)OC)c1ccccc1Oc1cc(Oc2ccccc2C#N)ncn1 [azoxystrobin]
[3]; in %
  Maximum inhibition rate: 86.7 ± 4.3%
[3]; read-out: IC50, NO production
  IC50: 1890 ± 350 nM
[4]
  IC50: 1700 ± 120 nM
Kunming female mice [1]; [7]
  curative effect compared with indomethacin: equivalent to 50 mg/Kg of indomethacin
Kunming female mice [1]; 50 mg/Kg intragastric
  Writhe starting time: 3.3 ± 1.5
  Number of writhing times: 24.2 ± 4.1
Kunming female mice [1]; 100 mg/Kg intragastric
  Writhe starting time: 3.9 ± 1.5
  Number of writhing times: 14.2 ± 2.2
Kunming female mice [1]; 200 mg/Kg intragastric
  Writhe starting time: 3.3 ± 1.3
  Number of writhing times: 7.6 ± 1.9
Kunming female mice [1]; intragastric 50, 100 and 200 mg/Kg
  effect on number of writhing times: in a dose-dependent manner
Kunming male mice; 100 mg/Kg versus indomethacin 50 mg/Kg
  curative effect compared with indomethacin: equivalent to indomethacin at 50 mg/Kg
Kunming male mice; FAPM and trifloxystrobin intraperitoneal, azoxystrobin intragastric
  writhe starting time (reaction latency) compared with control group: not significantly prolonged
Kunming male mice; Table 5, 50 mg/Kg intragastric
  Writhe starting time: 3.2 ± 1.1 min
  Number of writhing times: 31.9 ± 3.1
Kunming male mice; [8]
  Writhe starting time: 3.4 ± 1.8 min
  Number of writhing times: 24.9 ± 4.6
Kunming male mice; [9]
  Writhe starting time: 3.7 ± 1.5 min
  Number of writhing times: 21.6 ± 3.5
Kunming male mice; [10]
  Writhe starting time: 3.4 ± 1.2 min
  Number of writhing times: 12.4 ± 4.2
Kunming female mice [2]; [7]
  curative effect compared with indomethacin: equivalent to indomethacin at 50 mg/Kg
Kunming female mice [2]; FAPM intraperitoneal, azoxystrobin intragastric, 50, 100 and 200 mg/Kg one hour before
  effect on number of writhing times: in a dose-dependent manner
Kunming female mice [2]; Table 8, 50 mg/Kg intragastric
  Writhe starting time: 2.1 ± 1.0 min
  Number of writhing times: 17.7 ± 1.9
Kunming female mice [2]; [11]
  Writhe starting time: 2.0 ± 1.1 min
  Number of writhing times: 12.8 ± 2.4
Kunming female mice [2]; [12]
  Writhe starting time: 2.2 ± 0.8 min
  Number of writhing times: 10.3 ± 1.3
